Columns and labels:
[1] = system: olfactory receptors in liver tissue; assay: OligoDNA microarray, liver tissue of HFD mice fed odor components; type: in vivo, mouse
From the text: (§1) The obesity-inducing control diet used in the test was high-fat diet (HFD: 40% fat calorie, 17 g lard+3% corn oil/100 g diet). Diets supplemented with an odor component had the same composition as HFD, except that each of various types of odor components (indol-3-carbinol, oleuropein, cedryl acetate, α-cedrene and piperine) having anti-obesity efficacy was contained in 0.02-0.05% concentration. Indo)-3-carbinol, oleuropein, cedryl acetate, a-cedrene and piperine were purchased from Sigma-Aldrich.
(§2) After adding Trizol agent to visceral fat or liver tissue, the mixture was homogenized and centrifuged at 12,000×g for 10 min at 4° C. The supernatant was transferred to a new tube to remove fat layer. Then, 200 μl of chloroform was added to the tube, followed by vortexing. The same procedure was repeated twice and then the supernatant was transferred to a new tube, followed by addition of isopropanol and the supernatant at 1:1 ratio. The mixture was vigorously shaken 10 times and then incubated for 10 min at room temperature, followed by centrifugation at 12,000×g for 10 min at 4° C. to remove the supernatant. After adding 1 mL of 70% ethanol to the remaining pellet, it was centrifuged at 7,500×g for 5 min at 4° C. After removing the ethanol, the RNA pellet contained in the tube was dried for 5 min at 4° C. and dissolved in nuclease-free water. The RNA sample concentration was measured at a wavelength of 260 nm and 280 nm using a UV/VIS spectrophotometer (Beckman coulter, DU730) and the integrity of RNA sample was verified by agarose gel electrophoresis.
(§3) DNA microarry analysis using RNAs of visceral fat and liver tissue was conducted by GENOCHECK (CO., LTD.). RNA samples were pooled from 10 mice in each experimental group and subjected to microarray experiments in triplicate for the test of reproducibility. NimbleGen Mouse Whole Oligo 12-plex chip used in this experiment was prepared by triplicating 42,576 genes using Mouse Genome Build 8 as database. In NimbleGen mouse Whole Oligo 12-plex chip, 137,090 spots excluded control group gene were spotted by 16 μm×16 μm size in 17.4 mm×13 mm size. 42,576 oligo included […] genes which are known their functions and 5,431 transcripts and EST sequences which are unknown their functions. 10-50 μg of total RNA was added in oligo-dT primer, reverse transcriptase, dNTP, Cy3-dUTP and Cy5-dUTP, and reverse-transcripted according to the kit manufacturer's recommendations. The resultant was purified using cartridge, dried and dissolved in hybridization buffer solution (30 μL). The microarray was placed in hybridization cassette, heated at 95-100° C. for 5 min, mixed independently to each of RNA labeled with Cy3 and Cy5, and hybridized at 45° C. for 18 hrs. The slide was washed twice in solution containing 1×SSC and 0.1% SDS for 5 min, washed in 1×SSC for 5 min and dried to analyze.
(§4) The profile for olfactory receptors in which the expression was regulated by more than 2-fold change due to intake of odor components at each tissue was shown in Tables 5. As a result, it was determined that various types of odor components having anti-obesity efficacy regulated a plurality of olfactory receptors in peripheral tissues.

[2] = system: HSL (hormone sensitive lipase); assay: Western blotting, protein phosphorylation of HSL; type: in vivo, mouse
Description: (§5) A certain amount of visceral fat or liver tissues in mortar was homogenized with liquid nitrogen and cell lysis buffer. The mixture was transferred to a new tube, followed by vortexing. After centrifugation at 13,000×g for 20 min at 4° C., the middle layer of the tube was obtained and proteins were quantified by Bradford method. 50 μg of protein was electrophorized to SDS polyacrylamide gel, followed by electroblotting to PVDF hyper film. The protein was reacted using an appropriate antibody for the protein and detected by ECL, whereby insulin resistance, adipocyte differentiation, lipid metabolism or energy consumption-related mechanism of phytochemical components was investigated in the protein level.
(§6) In order to verify this, protein phosphorylations of HSL (hormone sensitive lipase), CREB (cAMP-responsive element binding protein) and AKT (v-akt murine thymoma viral oncogene) were evaluated by western blotting analysis.

[3] = system: AKT (v-akt murine thymoma viral oncogene); assay: Western blotting, protein phosphorylation of AKT; type: in vivo, mouse
Description: as §5, §6

[4] = system: olfactory receptors in visceral fat tissue; assay: OligoDNA microarray, visceral fat tissue of HFD mice fed odor components; type: in vivo, mouse
[5] = system: CREB (cAMP-responsive element binding protein); assay: Western blotting, protein phosphorylation of CREB; type: in vivo, mouse
Description: as §5, §6

[6] = system: obesity and metabolic diseases-related genes in visceral fat tissue; assay: RT-PCR of obesity and metabolic diseases-related genes, visceral fat tissue; type: in vivo, mouse; details: odor component-supplemented group to the HFD control group
Description: After adding 1 mL of Trizol agent (Invitrogen, USA) per 0.1 g of visceral fat or liver tissues, the mixture was homogenized and centrifuged at 12,000×g for 10 min at 4° C. The supernatant was transferred to a new tube and 200 μl of chloroform was added to the tube, followed by vortexing. The same procedure was repeated twice and then the supernatant was transferred to a new tube, followed by addition of isopropanol and the supernatant at 1:1 ratio. The mixture was vigorously shaken 10 times and then incubated for 10 min at room temperature, followed by centrifugation at 12,000×g for 10 min at 4° C. to remove the supernatant. After adding 1 mL of 70% ethanol to the remaining pellet, it was centrifuged at 7,500×g for 5 min at 4° C. After removing the ethanol, the RNA pellet contained in the tube was dried for 5 min at 4° C. and dissolved in nuclease-free water. The RNA sample concentration was measured at a wavelength of 260 nm and 280 nm using a UV/VIS spectrophotometer (Beckman coulter, DU730) and the integrity of RNA sample was verified by agarose gel electrophoresis. The RNA sample obtained from the visceral fat or liver tissues was trasnscribed using oligo dT primer and reverse transcriptase (GIBCO BRL, Gaithersburg, Md., USA) to synthesize cDNA. The PCR amplification was performed using the cDNA as templates and primers complementary to cDNA [NT] flanking sequence. 1 μl of the amplified products were resolved on agarose gel electrophoresis to verify DNA band.

[7] = system: olfactory receptors in visceral fat and liver tissues; assay: OligoDNA microarray, visceral fat and liver tissues of HFD mice fed odor components (tissue not separated in text); type: in vivo; details: supplemented to mouse fed high-fat diet for 10 weeks
From the text: as §1, §2, §3, §4

[8] = supplemented to HFD-fed mouse 10 weeks
[9] = odor component-supplemented group to the HFD control group
[10] = western blotting, compared to the HFD control group

In the case of `CC(=O)O[C@]1(C)CC[C@@]23C[C@@H]1C(C)(C)[C@@H]2CC[C@H]3C` [cedryl acetate], the “expression of olfactory receptor 38” value [1] is reported as “increased”, the “expression of olfactory receptor 77” value [1] is reported as “decreased” and the “expression of olfactory receptor 275” value [1] is reported as “increased”. The “expression of olfactory receptor 878” value [1] was “increased”, the “Olfr38 expression fold change to HFD group” value [1, 8] was 2.39 and the “Olfr77 expression fold change to HFD group” value [1, 8] was 0.5. The “Olfr275 expression fold change to HFD group” value [1, 8] was 2.64, the “Olfr305 expression fold change to HFD group” value [1, 8] was 2.21 and the “Olfr878 expression fold change to HFD group” value [1, 8] was 2.76. The “Olfr77 expression fold change to HFD group” value ([1]; supplemented to HFD-fed mouse 10 weeks, listed as Cedryl acetate) was 0.50, the “HSL phosphorylation, increase (change rate)” value [2, 9] was 46% increase and the “phosphorylation of HSL” value [2, 10] was “significantly increased”. For the same molecule, the “AKT phosphorylation, increase (change rate)” value [3, 9] was 33% increase, the “phosphorylation of AKT” value [3, 10] was “significantly increased” and the “expression of olfactory receptor 290” value [4] was “increased”. For the same molecule, the “expression of olfactory receptor 341” value [4] was “decreased”, the “expression of olfactory receptor 380” value [4] was “increased” and the “expression of olfactory receptor 1104” value [4] was “increased”. The “expression of olfactory receptor 1165” value [4] was “decreased”, the “Olfr290 expression fold change to HFD group” value [4, 8] was 2.40 and the “Olfr341 expression fold change to HFD group” value [4, 8] was 0.32. The “Olfr380 expression fold change to HFD group” value [4, 8] was 2.14, the “Olfr417 expression fold change to HFD group” value [4, 8] was 0.42 and the “Olfr618 expression fold change to HFD group” value [4, 8] was 0.43. The “Olfr663 expression fold change to HFD group” value [4, 8] was 2.04, the “Olfr1058 expression fold change to HFD group” value [4, 8] was 2.18 and the “Olfr1104 expression fold change to HFD group” value [4, 8] was 3.22. For the same molecule, the “Olfr1123 expression fold change to HFD group” value [4, 8] was 2.64, the “Olfr1125 expression fold change to HFD group” value [4, 8] was 2.07 and the “Olfr1136 expression fold change to HFD group” value [4, 8] was 0.43. The “Olfr1157 expression fold change to HFD group” value [4, 8] was 0.46, the “Olfr1165 expression fold change to HFD group” value [4, 8] was 0.36 and the “Olfr1442 expression fold change to HFD group” value [4, 8] was 2.18. For the same molecule, the “CREB phosphorylation, increase (change rate)” value [5, 9] was 39% increase, the “phosphorylation of CREB” value [5, 10] was “significantly increased” and the “C/EBPα gene expression, decrease (change rate)” value [6] was 36% decrease. The “CPT1 gene expression, increase (change rate)” value [6] was 47% increase^, the “FAS gene expression, decrease (change rate)” value [6] was 43% decrease and the “IL-6 gene expression, decrease (change rate)” value [6] was 74% decrease. The “PGC1α gene expression, increase (change rate)” value [6] was 57% increase^, the “PPARγ2 gene expression, decrease (change rate)” value [6] was 25% decrease and the “SIRT1 gene expression, increase (change rate)” value [6] was 650% increase ^. The “TNFα gene expression, decrease (change rate)” value [6] was 99% decrease, the “UCP1 gene expression, increase (change rate)” value [6] was 899% increase ^ and the “UCP3 gene expression, increase (change rate)” value [6] was 65% increase^. For the same molecule, the “aP2 gene expression, decrease (change rate)” value [6] was 33% decrease, the “expression of olfactory receptor 38 increased” value [7] was “more than 2 fold change” and the “expression of olfactory receptor 77 decreased” value [7] was “more than 2 fold change”. The “expression of olfactory receptor 275 increased” value [7] was “more than 2 fold change”, the “expression of olfactory receptor 290 increased” value [7] was “more than 2 fold change” and the “expression of olfactory receptor 305 increased” value [7] was “more than 2 fold change”. For the same molecule, the “expression of olfactory receptor 341 decreased” value [7] was “more than 2 fold change”, the “expression of olfactory receptor 380 increased” value [7] was “more than 2 fold change” and the “expression of olfactory receptor 417 decreased” value [7] was “more than 2 fold change”. The “expression of olfactory receptor 618 decreased” value [7] was “more than 2 fold change”, the “expression of olfactory receptor 663 increased” value [7] was “more than 2 fold change” and the “expression of olfactory receptor 878 increased” value [7] was “more than 2 fold change”. For the same molecule, the “expression of olfactory receptor 1058 increased” value [7] was “more than 2 fold change”, the “expression of olfactory receptor 1104 increased” value [7] was “more than 2 fold change” and the “expression of olfactory receptor 1123 increased” value [7] was “more than 2 fold change”. For the same molecule, the “expression of olfactory receptor 1125 increased” value [7] was “more than 2 fold change”, the “expression of olfactory receptor 1136 decreased” value [7] was “more than 2 fold change” and the “expression of olfactory receptor 1157 decreased” value [7] was “more than 2 fold change”. The “expression of olfactory receptor 1165 decreased” value [7] was “more than 2 fold change” and the “expression of olfactory receptor 1442 increased” value [7] was “more than 2 fold change”.
